Measurements: the supplement of paper PMC10307832

Tests used:
Test in all cases: relative viability (nuclei count vs DMSO), 5 days (fraction); higher = more cells survive
[1] = compound: O=C1NC(=O)[C@@H](c2cn3c4c(cccc24)CCC3)[C@@H]1c1c[nH]c2ccccc12 [Tivantinib] + COc1cccc2cc(-c3nc([C@H]4CC[C@H](C(=O)O)CC4)n4ncnc(N)c34)[nH]c12 [OSI-027] (partner 0.5 µM)
How it was run: (§1)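 Each reported value is a median over duplicate plates. It expresses relative viability: treated-well nuclei count divided by vehicle-well nuclei count. Lung cancer cell lines in 1536-well plates were dosed by pin tool a day after seeding, alone with one drug or with a fixed anchor-drug dose plus five library-drug doses (not always all listed) in √10 steps, and nuclei were counted after 5 days.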

[2] = compound: O=C1NC(=O)[C@@H](c2cn3c4c(cccc24)CCC3)[C@@H]1c1c[nH]c2ccccc12 [Tivantinib] + O=C(CCCCCCC(=O)Nc1ccccc1)NO [Vorinostat] (partner 1 µM)
How it was run: as §1

[3] = compound: O=C1NC(=O)[C@@H](c2cn3c4c(cccc24)CCC3)[C@@H]1c1c[nH]c2ccccc12 [Tivantinib] + C[C@]1(O)C[C@@H](c2nc(-c3ccc4ccc(-c5ccccc5)nc4c3)c3c(N)nccn32)C1 [Linsitinib] (partner 1 µM)
How it was run: as §1

[4] = compound: O=C1NC(=O)[C@@H](c2cn3c4c(cccc24)CCC3)[C@@H]1c1c[nH]c2ccccc12 [Tivantinib] + Cc1nc(NC(=O)N2CCC[C@H]2C(N)=O)sc1-c1ccnc(C(C)(C)C(F)(F)F)c1 [Alpelisib] (partner 2 µM)
How it was run: as §1

Cell Line | relative viability ([1]; first compound 0.01 µM) | relative viability ([1]; first compound 0.03162 µM) | relative viability ([1]; first compound 0.1 µM) | relative viability ([1]; first compound 0.3162 µM) | relative viability ([2]; first compound 0.01 µM) | relative viability ([2]; first compound 0.03162 µM) | relative viability ([2]; first compound 0.1 µM) | relative viability ([2]; first compound 0.3162 µM) | relative viability ([3]; first compound 0.01 µM) | relative viability ([3]; first compound 0.03162 µM) | relative viability ([3]; first compound 0.1 µM) | relative viability ([3]; first compound 0.3162 µM) | relative viability ([4]; first compound 0.01 µM) | relative viability ([4]; first compound 0.03162 µM) | relative viability ([4]; first compound 0.1 µM) | relative viability ([4]; first compound 0.3162 µM)
NCI-H522 | 0.749 | 0.648 | 0.624 | 0.617 | 0.906 | 0.754 | 0.973 | 0.548 | – | – | – | – | – | – | – | –
HCC-366 | 0.941 | 0.807 | 0.848 | 0.934 | 0.389 | 0.287 | 0.373 | 0.415 | 0.634 | 0.543 | 0.542 | 0.585 | 0.432 | 0.35 | 0.421 | 0.419
A-427 | 0.556 | 0.413 | 0.487 | 0.456 | 0.859 | 0.938 | 0.842 | 0.85 | 1.12 | 1.12 | 1.12 | 1.05 | 1.12 | 1.12 | 1.1 | 0.973
NCI-H23 | 0.651 | 0.366 | 0.515 | 0.518 | 0.679 | 0.527 | 0.624 | 0.671 | 0.539 | 0.579 | 0.626 | 0.561 | 0.778 | 0.623 | 0.717 | 0.557
NCI-H1755 | 0.775 | 0.662 | 0.69 | 0.791 | 0.861 | 0.793 | 0.695 | 0.917 | 0.975 | 0.97 | 0.916 | 1.01 | 0.918 | 0.936 | 0.886 | 0.902
EPLC-272H | 0.319 | 0.32 | 0.293 | 0.147 | 0.493 | 0.599 | 0.41 | 0.296 | 1.07 | 1.22 | 1.19 | 0.931 | 0.975 | 0.922 | 0.836 | 0.672
PC-3 [JPC-3] | 0.841 | 0.724 | 0.716 | 0.48 | 0.791 | 0.979 | 0.891 | 0.807 | 0.929 | 1.04 | 1.01 | 0.708 | 0.993 | 1.06 | 1.05 | 0.775
NCI-H1975 | 0.751 | 0.752 | 0.611 | 0.691 | 0.752 | 0.754 | 0.685 | 0.77 | 0.875 | 0.919 | 0.938 | 0.598 | 0.645 | 0.676 | 0.602 | 0.5
NCI-H1703 | – | – | – | – | – | – | – | – | 0.828 | 0.456 | 0.783 | 0.687 | 0.499 | 0.329 | 0.256 | 0.334
HCC-44 | 0.488 | 0.534 | 0.441 | 0.669 | 1.09 | 1.07 | 1.1 | 1.07 | 0.707 | 0.589 | 0.745 | 0.641 | 0.844 | 0.703 | 0.858 | 0.793
SK-MES-1 | 0.668 | 0.435 | 0.554 | 0.482 | 1.16 | 0.945 | 1.06 | 0.935 | 1.13 | 1.03 | 0.98 | 0.82 | 0.912 | 0.867 | 0.929 | 0.444
NCI-H727 | 0.781 | 0.484 | 0.515 | 0.468 | 1.11 | 1.22 | 1.35 | – | 0.293 | 0.253 | 0.243 | – | 0.537 | 0.526 | 0.505 | –
RERF-LC-KJ | 0.592 | 0.646 | 0.512 | 0.389 | 0.717 | 0.628 | 0.717 | 0.502 | 0.895 | 0.945 | 0.826 | 0.808 | 0.839 | 0.854 | 0.81 | 0.6
NCI-H1623 | 0.434 | 0.442 | 0.487 | – | – | – | – | – | – | – | – | – | – | – | – | –
Calu-6 | – | – | – | – | – | – | – | – | 1.02 | 1.04 | – | 0.963 | 0.987 | 1.03 | 1.02 | 0.955
LCLC-103H | 0.471 | 0.425 | 0.41 | 0.414 | 0.756 | 0.642 | 0.749 | 0.936 | 1.03 | 0.944 | 1.03 | 0.996 | 0.905 | 0.938 | 0.839 | 0.86
CAL-12T | 0.791 | 0.541 | 0.634 | 0.256 | 0.67 | 0.874 | 0.74 | 0.568 | 0.785 | 0.812 | 0.709 | 0.397 | 1.19 | 1.32 | 1.09 | 0.8
SK-LU-1 | 0.364 | 0.342 | 0.381 | 0.363 | 0.742 | 0.764 | 0.65 | 0.836 | 1.07 | 1.17 | 0.982 | 1.14 | 1.04 | 1.17 | 0.995 | 1.16
NCI-H1651 | 0.846 | 0.654 | 0.625 | 0.713 | 0.554 | 0.612 | 0.559 | 0.542 | 0.937 | 1.01 | 1.04 | 0.814 | 1.04 | 0.856 | 1.01 | 0.915
BEN | 0.323 | 0.269 | 0.278 | 0.339 | 0.591 | 0.566 | 0.528 | 0.515 | 0.998 | 0.725 | 0.826 | 0.693 | 1.02 | 0.837 | 0.893 | 0.735

Cell Line | relative viability ([1]; first compound 0.01 µM) | relative viability ([1]; first compound 0.03162 µM) | relative viability ([1]; first compound 0.1 µM) | relative viability ([1]; first compound 0.3162 µM) | relative viability ([2]; first compound 0.01 µM) | relative viability ([2]; first compound 0.03162 µM) | relative viability ([2]; first compound 0.1 µM) | relative viability ([2]; first compound 0.3162 µM) | relative viability ([3]; first compound 0.01 µM) | relative viability ([3]; first compound 0.03162 µM) | relative viability ([3]; first compound 0.1 µM) | relative viability ([3]; first compound 0.3162 µM) | relative viability ([4]; first compound 0.01 µM) | relative viability ([4]; first compound 0.03162 µM) | relative viability ([4]; first compound 0.1 µM) | relative viability ([4]; first compound 0.3162 µM)
EMC-BAC-2 | 0.366 | 0.3 | 0.347 | 0.357 | 0.532 | 0.522 | 0.496 | 0.582 | 0.842 | 0.808 | 0.768 | 0.666 | 0.792 | 0.718 | 0.705 | 0.656
LXF-289 | 0.77 | 0.724 | 0.761 | 0.858 | 0.756 | 0.725 | 0.733 | 0.778 | 0.982 | 0.971 | 0.906 | 0.927 | 1.06 | 1.01 | 1.03 | 1.04
ABC-1 | 0.586 | 0.422 | 0.538 | 0.603 | 1.44 | 1.32 | 1.01 | 1.21 | 0.767 | 0.826 | 0.557 | 0.646 | 0.984 | 0.995 | 0.742 | 0.825
NCI-H2170 | 0.645 | 0.718 | 0.652 | – | 0.852 | 0.812 | 0.74 | – | – | – | – | – | 0.806 | 0.852 | 0.674 | –
NCI-H1355 | 0.434 | 0.348 | 0.401 | 0.356 | 0.611 | 0.571 | 0.675 | 0.61 | 0.726 | 0.801 | 0.725 | 0.779 | 0.852 | 0.839 | 0.877 | 0.751
EBC-1 | – | – | – | – | – | – | – | – | 0.902 | 0.626 | 0.842 | 0.86 | 0.948 | 0.865 | 0.841 | 0.719
NCI-H2405 | 0.717 | 0.637 | 0.632 | 0.574 | 1.17 | 1.04 | 1 | 1.26 | 1.16 | 1.02 | 0.941 | 0.739 | 1.12 | 0.751 | 0.777 | 0.483
NCI-H2009 | 0.677 | 0.529 | 0.61 | 0.713 | 0.735 | 0.672 | 0.746 | 0.715 | 1.16 | 1.19 | 1.15 | 1.17 | 1.15 | 1.21 | 1.12 | 1.14
NCI-H441 | 0.517 | 0.608 | 0.498 | 0.471 | 0.844 | 0.762 | 0.563 | 0.708 | 0.383 | 0.508 | 0.563 | 0.463 | 0.736 | 0.648 | – | 0.76
PC-14 | 0.942 | 0.784 | 0.755 | 0.598 | 0.832 | 0.821 | 0.755 | 0.356 | 0.941 | 0.923 | 0.931 | 0.892 | 0.874 | 0.927 | 0.945 | 0.892
NCI-H1563 | 0.78 | 0.756 | 0.718 | 0.745 | – | – | – | – | 1.22 | 1.25 | 1.07 | 1.1 | 1.04 | 0.89 | 0.932 | 1.06
NCI-H2342 | 0.63 | 0.597 | 0.585 | 0.532 | 0.739 | 0.766 | 0.788 | 0.614 | – | – | – | – | – | – | – | –
ChaGo-K-1 | 0.662 | 0.482 | 0.607 | 0.549 | 0.76 | 0.704 | 0.704 | 0.717 | – | – | – | – | – | – | – | –
A549 | – | – | – | – | – | – | – | – | 0.691 | 0.545 | 0.539 | 0.368 | 0.769 | 0.818 | 0.708 | 0.79
NCI-H1650 | 0.681 | 0.535 | 0.634 | 0.532 | 0.605 | 0.448 | 0.651 | 0.553 | – | – | – | – | – | – | – | –
NCI-H1299 | – | – | – | – | – | – | – | – | 0.941 | 0.946 | 0.92 | 1.04 | 1.09 | 1.01 | 1.01 | 1.02
SW 900 | 0.605 | 0.443 | 0.583 | 0.533 | 0.501 | 0.438 | 0.593 | 0.444 | – | – | – | – | – | – | – | –
NCI-H1792 | 0.777 | 0.685 | 0.595 | 0.547 | – | – | – | – | 0.596 | 0.431 | 0.512 | 0.323 | 0.804 | 0.633 | 0.699 | 0.415
IA-LM | – | – | – | – | 1.01 | 0.826 | 0.87 | 0.895 | 0.593 | – | 0.586 | 0.538 | 0.878 | 0.653 | 0.853 | 0.815
NCI-H1648 | 0.254 | 0.259 | 0.238 | – | – | 0.445 | 0.528 | 0.272 | – | – | – | – | – | – | – | –
